Columns and labels:
intestinal microbiome [1] = assay: P3A-mediated microbiome protection in humanized pigs, 16S rRNA sequencing of fecal DNA; assay type: in vivo, gnotobiotic pigs populated with human adult fecal microflora; conditions: feces collected on Day 14; antibiotics IP 50 mg/kg 4 days; P3A 75 mg/dose orally 4 times a day 7 days
[2] = test system: ampicillin-resistant aerobes including those of the phylum Proteobacteria; assay: Plating of Day 21 feces on LB+amp plates; assay type: in vivo, gnotobiotic pigs populated with human adult fecal microflora; conditions: aerobic conditions, 37° C.
Method: Equal quantities of diluted feces collected from animals at necropsy were plated on LB+amp plates and grown under aerobic conditions at 37° C., The colonies were counted while taking into account the dilution factor.
The gastrointestinal (GI) tract of 5 day old gnotobiotic pigs was populated with human adult fecal microflora. Two days later, animals received antibiotics (clindamycin or CRO, IP, 50 mg/kg) for 4 days. P3A was delivered orally 4 times a day (75 mg/dose) for 7 days beginning the day before CRO administration. Specifically, the P3A delayed-release capsules as described in Examples 1 and 2 were administered to the animals. C. difficile (2.6×10^6 cfu) was delivered orally to all animals on Day 13. Feces were collected on Days 11, 12, 14, 18, 20 directly from the rectum using sterile cotton swabs and at necropsy on Day 21 directly from the intestinal tract. […] The levels of a specific bacterial population expected to be sensitive to CRO, but not to clindamycin, ampicillin-resistant aerobes including those of the phylum Proteobacteria, were assessed by plating equal amounts of Day 21 feces on LB+amp plates. Fecal C. difficile Toxin A and interleukin-8 (ILS) were assessed via ELISA as a measure of C. difficile infection (CDI). Intestinal tracts collected at necropsy on Day 21 were evaluated histologically for signs of CDI.

intestinal microbiome [3] = assay: Whole genome shotgun sequencing and comparative metagenomics of pig fecal samples; assay type: in vivo, gnotobiotic pigs populated with human adult fecal microflora; conditions: for number of bacterial taxa, Genus / number of bacterial taxa, Species / number of bacterial taxa, Strain/sub-species: per treatment group, pig fecal samples
Method: In order to study the ability of P3A to protect the intestinal microbiome from antibiotics-induced (e.g., ceftriaxone (CRO)-induced) damage, pig fecal samples obtained from the study described above were subjected to additional genomic analysis. Specifically, the 16S rRNA gene V1V2 region was sequenced. In addition, fecal DNA was subjected to whole genome shotgun sequencing. Shotgun sequencing was performed using Illumina HiSeq RAPID RUN, targeting 100 bp single read with the aim to achieve approximately 10-20 million reads per sample (Table 6),
These sequence data were classified taxonomically to identify microbial communities associated with the pig fecal samples. Taxonomic classification was performed using bioInformatics algorithms and curated genome databases. Briefly, raw, unassembled shotgun sequence reads were probed against curated GeneBook bacterial and viral databases using GENIUS software package for rapid identification of bacteria communities as well as their relative abundance (Hasan of al., 2014, PLoS ONE 9:e97699; Lax et al., 2014, Science 345:1048). The analyses identified 139 bacterial strains, 79 species, and 35 genera among the treatment groups (Table 7).
Comparative metagenomics analyses were performed by creating heatmaps based on the relative abundance of each bacterial strain in each sample (see FIGS. 11A and 11B) and at the bacterial genus level (see FIG. 12) using the NMF R software package (Gaujoux and Seoighe, 2010, BMC Bioinformatics, 11:367). The samples were clustered using the maximum distance function and the Ward Hierarchical Clustering algorithm. The distance function was used to measure the difference in composition between each of the samples. The clustering algorithm used the distances between each of the samples to create a dendrogram that clustered samples with similar compositions, including both the presence and absence of organisms, in the same clades.
Comparative metagenomics analyses were also performed to investigate changes in the microbiome across different treatment groups. For these analyses, the centroid classification method from the PamR package (Tibshirani of al., 2002, PNAS 99:6567), was used to compare the average frequency (absolute abundance) of each bacterial strain in the samples. The deviation of the centroid of each bacterial strain from each study group was graphed by the overall centroid of all the study groups (FIGS. 13A and 13B).
As the number of sequence reads generated from each individual sample was variable, subsamples from each sample were chosen to represent a subset of 10 million reads. This was done to avoid any bias due to different sample sizes and to enable the measurement of the absolute abundance of the bacterial organisms in the samples. Using these subsets to reduce bias, the comparative metagenomics analyses were performed as described previously for FIGS. 13A and 13B by graphing the deviation of the centroid of each bacterial strain from each study group by the overall centroid of all the study groups (FIGS. 14A and 14B).

in vivo = assay: in vivo; design: species or system Yorkshire piglets; conditions: Yorkshire, pig; for CRO serum levels: iv, 50 mg/kg
Method: A total of 10 pigs were treated once a day with IV ceftriaxone (CRO; 50 mg/kg) for a total of 7 days. A cohort of 5 pigs also received oral P3A (75 mg, four times a day), starting the day before CRO treatment and extending one day after CRO was stopped, for a total of 9 days. On Day 2 of CRO treatment, serum was collected 1, 6, and 19 hours after CRO administration. Serum was assayed for CRO levels using a validated high-performance liquid chromatography assay. […] The CRO levels in the serum collected at 19 hours was below the limit of detection of the assay (0.5 ug/mL). For both sets of histograms (1 hour and 6 hours), the left bar is ceftriaxone alone and the right bar is ceftriaxone and P3A.
Another pig study was performed to determine if oral administration of P3A (i.e. SYN-004) had any effect on the systemic levels of antibiotics. For this study, ten Yorkshire piglets, approximately 2 months old and weighing approximately 20 kg were treated with intravenous ceftriaxone (CRO) at 50 mg/kg once a day for seven days. Five animals also received P3A capsules (1 capsule containing 75 mg of P3A, four times a day) beginning the day before CRO treatment and extending to one day after CRO treatment, for a total of nine days. Specifically, the P3A delayed-release capsules as described in Examples 1 and 2 were administered to the animals. On day 2, animals were anesthetized and approximately 9 mls of blood drawn from the vena cava at three timepoints, 1 hour, 6 hours, and 19 hours after CRO administration. Blood was immediately dispensed into a serum separator vacutainer tube. After coagulation, samples were centrifuged and the serum was transferred to a cryovial and stored at −80° C. until analysis. CRO in the serum samples was quantified using a validated high-performance liquid chromatography assay (Owens et al., 2001, Int. J. Antimicrobial Agents, 17:483). A standard curve for CRO was prepared in negative control (untreated) pig serum and contained 6 points ranging from 0.5 to 50 ug/mL. The assay was linear over a range of 0.5 to 50 ug/mL. […]

[4] = species-level centroid classification vs Group 1 (Control)

concentration at 19 h (in vivo) [ng/mL] | CRO serum levels (in vivo; 1 h) [µg/mL] | CRO serum levels (in vivo; 6 h) [µg/mL] | Structure (SMILES) | phylum-level taxonomic classification of bacteria in fecal DNA (intestinal microbiome [1]) | bacteria levels on LB+amp plates [2] | number of bacterial taxa, Genus (intestinal microbiome [3]) | number of bacterial taxa, Species (intestinal microbiome [3]) | number of bacterial taxa, Strain/sub-species (intestinal microbiome [3]) | abundance of Methanobrevibacter smithii (intestinal microbiome [3]; [4]) | abundance of Turicibacter spp (intestinal microbiome [3]; [4])
< 500 | 79.43 ± 12.08 | 5.83 ± 1.15 | CO/N=C(\C(=O)N[C@@H]1C(=O)N2C(C(=O)O)=C(CSc3nc(=O)c(=O)[nH]n3C)CS[C@H]12)c1csc(N)n1 [CRO, ceftriaxone] | dysbiosis | at least two log lower levels | 32 | 70 | 102 | overabundance | underrepresentation
– | – | – | CCC[C@@H]1C[C@@H](C(=O)N[C@@H]([C@H]2O[C@H](SC)[C@H](O)[C@@H](O)[C@H]2O)[C@H](C)Cl)N(C)C1 [clindamycin] | – | – | 7 | 12 | 17 | – | –

Source: patent US12178917B2, “Beta-lactamase formulations and uses thereof” (Theriva Biologics, Inc., priority 2014, dated 2024)
